Results as given in US9265746B2, “Method for cell-specific targeting” (priority 2006, dated 2016).

System: KB-cell xenografts
Assay: Biodistribution of folate radiotracers in athymic nude mice bearing KB-cell xenografts, with or without antifolate
Format: in vivo
Conditions: 4 h p.i.; antifolate named in label pre-injected 1 h before radiotracer
Protocol: Preparation of cells for in vivo experiments: For subcutaneous inoculation of the mice sub-confluent cells were harvested by treatment with EDTA (1 mM) in PBS (1×, pH 7.4). The cells were then washed once with PBS and pelleted by spinning at 1000×g for 5 min at 20° C. The cells were resuspended in PBS to obtain a concentration of 50×10^6 cells/mL.
In Vivo Studies. 4-5-week-old female, athymic nude mice (CD1-Foxn1/nu) were purchased from Charles River Laboratories (Sulzfeld, Germany). Mice were housed under conditions of controlled temperature (26° C.), humidity (68%) and daily light cycle (12 h light/12 h dark). The animals were fed with a folate-deficient rodent diet (to reduce their serum folate to a level near that of humans) (Mathias et al, J. Nucl. Med. 1996; 37:1003-08). After an acclimation period of 5-7 days, the mice were inoculated subcutaneously with the tumour cell suspension (5×10^6 cells) into the subcutis of the axilla. Radiotracer distribution studies were performed 12-14 days after tumour cell inoculation. The radiotracer (100 μL, 1a: 3.5 MBq/mL or 1b: 7 MBq/mL) was administered via a lateral tail vein. Antifolates (MTX, RTX and PMX) were dosed according to literature experiments at the upper limit of the tolerated dose (Li et al, Clin. Exp. Pharmacol. Physiol. 2004; 31:267-70; Pritchard et al, Clin. Cancer Res. 2000; 6:4389-95; Hughes et al, Journal of Clinical Oncology 2002; 20:3533-44; Aherne et al, Br. J. Cancer 1998; 77:221-26). MTX was supplemented to the drinking water (80 mg/mL) or intravenously injected (400 μg), 24 h, 2 h, 1 h, 30 min and 15 min previous to the administration of radiotracer 1a. RTX (100 μg) and PMX (400 μg) respectively were administered intravenously 2 h, 1 h, 30 min and 15 min previous to the radiotracer 1a. The animals were sacrificed and dissected 4 h p.i. of the radiotracer 1a. Additional biodistribution experiments were performed (30 min), 1 h, 4 h and 24 h post injection of the radiotracer 1a or 1b respectively with (antifolate) pre-treated animals 1 h previous to the experiment. The selected tissues were removed, weighted, and counted for radioactivity to determine distribution of radioactivity within the test animal. The results were tabulated as percentage of the injected dose per gram (% ID/g) of weight tissue, using reference counts from a definite sample of the original injectate.

Structure (SMILES)	biodistribution blood	biodistribution bone	biodistribution contents of intest.	biodistribution heart	biodistribution intestines	biodistribution kidney	biodistribution liver	biodistribution lung	biodistribution muscle	biodistribution spleen	biodistribution stomach	biodistribution tumour	tumour-to-blood	tumour-to-kidney	tumour-to-liver
Nc1nc2ncc(CNc3ccc(C(=O)NC(CCC(=O)NCCCCCCn4cc5[n+](c4)[99Tc-5]4([C]#[O+])([C]#[O+])([C]#[O+])[NH2+]C(C5)C(=O)[O]4)C(=O)O)cc3)nc2c(=O)[nH]1 (stereo not drawn) [radiotracer 2a]	0.19 ± 0.18 % ID/g	0.82 ± 0.13 % ID/g	7.72 ± 4.36 % ID/g	0.80 ± 0.60 % ID/g	0.79 ± 0.43 % ID/g	42.02 ± 7.31 % ID/g	4.51 ± 1.29 % ID/g	0.85 ± 0.08 % ID/g	1.31 ± 0.28 % ID/g	0.30 ± 0.05 % ID/g	0.62 ± 0.22 % ID/g	3.72 ± 0.89 % ID/g	12.29 ± 4.22	0.09 ± 0.02	0.88 ± 0.38
Nc1nc2ncc(CNc3ccc(C(=O)NC(CCC(=O)NCCCCCC[N+]45Cc6cccc[n+]6[99Tc-5]4([C]#[O+])([C]#[O+])([C]#[O+])[n+]4ccccc4C5)C(=O)O)cc3)nc2c(=O)[nH]1 (stereo not drawn) [radiotracer 3a]	0.03 ± 0.01 % ID/g	0.16 ± 0.02 % ID/g	2.49 ± 12.10 % ID/g	0.20 ± 0.09 % ID/g	0.71 ± 0.40 % ID/g	7.11 ± 0.75 % ID/g	1.72 ± 2.04 % ID/g	0.20 ± 0.02 % ID/g	0.27 ± 0.01 % ID/g	0.08 ± 0.02 % ID/g	0.54 ± 0.58 % ID/g	0.82 ± 0.27 % ID/g	27.00 ± 14.60	0.12 ± 0.05	1.24 ± 1.03
